# Test results from patent US6900220B2, “Quinazolone derivatives as alpha 1A/B adrenergic receptor antagonists” (Syntex (U.S.A.) LLC, priority 2001, dated 2005).
# Where a name gives a salt, the structure may show the parent alone.
# Legend:
# [1] = system: anesthetized dog; assay: Dog in vivo blood and intraurethral pressure assay; settings: anesthetized mongrel dogs, i.v. bolus, increasing doses
# Experimental: The following describes an in vivo assay for measuring the relative effect of test compounds on hypogastric nerve stimulation-induced increases in intraurethral pressure and phenylephrine-induced increases in diastolic blood pressure in anesthetized dog.
# Mongrel dogs (10 to 20 kg) were fasted for 12 to 18 hours and anesthetized with […] (35 mg/kg, i.v.). An endotracheal tube was inserted and thereafter the lungs were mechanically ventilated with room air. The right femoral vein was isolated and cannulated with two polyethylene cannulae, one for the administration of a continuous infusion of phenobarbital sodium (5 to 10 mg/kg/hr) and the other for bolus administration of test substances. The right femoral artery was isolated and cannulated to the abdominal aorta with a fluid filled polyethylene cannula connected to an external pressure transducer for monitoring diastolic aortic pressure (DAP). The bladder was exposed via a ventral midline abdominal incision and emptied of urine through a 22 gauge needle. The bladder was cannulated through a stab incision with a water filled balloon catheter connected to an external pressure transducer for monitoring prostatic intraurethral pressure (IUP). The right hypogastric nerve (HGN) was carefully isolated and attached to a Dastre's electrode for nerve stimulation. […]
melting point [°C],Compound,inhibition of hypogastric nerve (HGN) stimulation-induced increases in intraurethral pressure (IUP) relative to phenylephrine-induced increases in diastolic aortic pressure (DAP) [1]
227.9 to 229.6,"COc1cc2nc(N3CCc4c(CN5CCOCC5)cccc4C3)[nH]c(=O)c2cc1OC (as salt: hydrochloric acid salt) [Compound 701, 6,7-Dimethoxy-2-(5-morpholin-4-ylmethyl-3,4-dihydro-1H-isoquinolin-2-yl)-3H-quinazolin-4-one]",–
249 to 251,"COc1cc2nc(N3CCc4c(cccc4C(=N)N4CCOCC4)C3)[nH]c(=O)c2cc1OC (as salt: hydrochloric acid salt) [Compound 901, 2-[5-(imino-morpholin-4-yl-methyl)-3,4-dihydro-1H-isoquinolin-2-yl]-6,7-dimethoxy-3H-quinazolin-4-one]",–
> 300,"COc1cc2nc(N3CCc4c(cccc4-c4cnccc4N)C3)[nH]c(=O)c2cc1OC (as salt: hydrochloric acid salt) [Compound 902, 2-[5-(4-amino-pyridin-3-yl)-3,4-dihydro-1H-isoquinolin-2-yl]-6,7-dimethoxy-3H-quinazol-4-one]",–
188.6 to 190.4,"COc1cc2c(cc1OC)CN(c1nc(=O)c3cc(OC)c(OC)cc3[nH]1)CC2 [Compound 105, 2-(6,7-dimethoxy-3,4-dihydro-1H-isoquinolin-2-yl)-6,7-dimethoxy-1H-quinazolin-4-one]",–
287.7 to 290.4,"COc1cc2nc(N3CCc4c(ncnc4N4CCOCC4)C3)[nH]c(=O)c2cc1OC [Compound 201, 6,7-dimethoxy-2-(4-morpholin-4-yl-5,8-dihydro-6H-pyrido[3,4-d]pyrimidin-7-yl)-3H-quinazolin-4-one]",–
248 to 249.4,"COc1cc2nc(N3CCn4c(cnc4NC4CCCCC4)C3)[nH]c(=O)c2cc1OC [Compound 301, 2-(3-cyclohexylamino-5,6-dihydro-8H-imidazo[1,5-a]pyrazin-7-yl)-6,7-dimethoxy-1H-quinazolin-4-one]",–
230 to 237,"COc1cc2nc(N3CCc4c(cccc4S(=O)(=O)N4CCN(C)CC4)C3)[nH]c(=O)c2cc1OC [Compound 401, 6,7-dimethoxy-2-[5-(4-methyl-piperazine-1-sulfonyl)-3,4-dihydro-1H-isoquinolin-2-yl]-3H-quinazolin-4-one]",–
> 300,"COc1cc2[nH]c(N3CCn4c(-c5ccccc5)cnc4C3)nc(=O)c2cc1OC [Compound 904, 6,7-dimethoxy-2-(3-phenyl-5,6-dihydro-8H-imidazo[1,2-α]pyrazin-7-yl)-1H-quinazolin-4-one]",–
–,COc1cc2nc(N3CCN(C(=O)c4ccco4)CC3)nc(N)c2cc1OC [prazosin],inhibited increases in IUP and DAP in similar fashion
